According to patent US9073855B2, “BCL-2 selective apoptosis-inducing agents for the treatment of cancer and immune diseases” (AbbVie Inc., priority 2008, dated 2015):

How the values were obtained:
GST-Bcl-2 = GST-Bcl-2 (Homo sapiens, UniProt P10415); assay: TR-FRET binding assay, GST-Bcl-2 with F-Bak peptide probe; settings: for Ki: TR-FRET Binding Affinity
Experimental: (§1) Tb-anti-GST antibody was purchased from Invitrogen (Catalog No. PV4216).
(§2) Representative compounds were serially diluted in dimethyl sulfoxide (DMSO) starting at 50 μM (2× starting concentration; 10% DMSO) and 10 μL were transferred into a 384-well plate.
(§3) The samples were then mixed on a shaker for 1 minute and incubated for an additional 3 hours at room temperature. For each assay, the probe/antibody and protein/probe/antibody were included on each assay plate as negative and positive controls, respectively. Fluorescence was measured on the ENVISION plate reader (Perkin Elmer) using a 340/35 nm excitation filter and 520/525 (F-Bak peptide) and 495/510 nm (Tb-labeled […] antibody) emission filters.
(§4) The inhibition constant (Ki) is the dissociation constant of an enzyme-inhibitor complex or a protein/small molecule complex, wherein the small molecule is inhibiting binding of one protein to another protein or peptide. […] Inhibition constants were determined using Wang's equation (Wang Z-X., An Exact Mathematical Expression For Describing Competitive Binding Of Two Different Ligands To A Protein Molecule. FEBS Lett. 1995, 360:111-4).

GST-Bcl-XL = GST-Bcl-XL (Homo sapiens, UniProt Q07817); assay: TR-FRET binding assay, GST-Bcl-XL with F-Bak peptide probe; settings: TR-FRET Binding Affinity
Experimental: as §1, §2, §3, §4

[1] = GST-Bcl-XL, F-Bak peptide probe
[2] = TR-FRET, Bcl-XL Ki divided by Bcl-2 Ki
[3] = ratio of TR-FRET Ki values, Bcl-XL over Bcl-2

GST-Bcl-2, sequence (P10415 whole entry): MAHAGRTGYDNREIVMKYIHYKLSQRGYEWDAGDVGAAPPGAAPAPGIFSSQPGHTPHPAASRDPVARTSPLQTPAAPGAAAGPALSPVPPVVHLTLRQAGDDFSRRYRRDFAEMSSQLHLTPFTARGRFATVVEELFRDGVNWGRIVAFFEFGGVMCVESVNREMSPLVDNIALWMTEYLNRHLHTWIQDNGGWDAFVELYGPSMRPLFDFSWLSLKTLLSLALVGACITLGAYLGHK
GST-Bcl-XL, sequence (Q07817 whole entry): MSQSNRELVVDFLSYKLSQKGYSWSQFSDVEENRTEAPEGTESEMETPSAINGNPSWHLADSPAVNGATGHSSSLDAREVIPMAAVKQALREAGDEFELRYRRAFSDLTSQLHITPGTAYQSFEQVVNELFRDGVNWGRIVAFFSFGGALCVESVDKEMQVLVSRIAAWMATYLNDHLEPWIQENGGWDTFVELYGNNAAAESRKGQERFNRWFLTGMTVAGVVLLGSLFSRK

Row | SMILES | Ki (GST-Bcl-2; GST-Bcl-2, F-Bak peptide probe) [nM] | Ki (GST-Bcl-XL; [1]) [nM] | Ki (GST-Bcl-2) [nM] | Binding selectivity ratio (Bcl-XL Ki/Bcl-2 Ki) (GST-Bcl-2; [2]) | Ki (GST-Bcl-XL) [nM] | Binding selectivity ratio (Bcl-XL Ki/Bcl-2 Ki) (GST-Bcl-2; [3])
1 | CN1CC[C@H](Nc2ccc(S(=O)(=O)NC(=O)c3ccc(N4CCN(CC5=C(c6ccc(Cl)cc6)CC(C)(C)CC5)CC4)cc3Oc3ccc4[nH]ccc4c3)cc2[N+](=O)[O-])C1 [Example 234, 4-(4-{[2-(4-chlorophenyl)-4,4-dimethylcyclohex-1-en-1-yl]methyl}piperazin-1-yl)-2-(1H-indol-5-yloxy)-N-[(4-{[(3S)-1-methylpyrrolidin-3-yl]amino}-3-nitrophenyl)sulfonyl]benzamide] | 0.369 | 24.5 | – | – | – | –
2 | CC1(C)CCC(CN2CCN(c3ccc(C(=O)NS(=O)(=O)c4cnc(OCC5(F)CCC(O)CC5)c(Cl)c4)c(Oc4cccc5[nH]ncc45)c3)CC2)=C(c2ccc(Cl)cc2)C1 (stereo not drawn) [Example 518, N-({5-chloro-6-[(cis-1-fluoro-4-hydroxycyclohexyl)methoxy]pyridin-3-yl}sulfonyl)-4-(4-{[2-(4-chlorophenyl)-4,4-dimethylcyclohex-1-en-1-yl]methyl}piperazin-1-yl)-2-(1H-indazol-4-yloxy)benzamide] | – | – | < 0.01 | >254.6 | 2.55 | –
3 | CC1(C)CCC(CN2CCN(c3ccc(C(=O)NS(=O)(=O)c4ccc(N[C@@H]5CCN(CC#N)C5)c([N+](=O)[O-])c4)c(Oc4cccc5[nH]cnc45)c3)CC2)=C(c2ccc(Cl)cc2)C1 [Example 428, 2-(1H-benzimidazol-4-yloxy)-4-(4-{[2-(4-chlorophenyl)-4,4-dimethylcyclohex-1-en-1-yl]methyl}piperazin-1-yl)-N-[(4-{[(3R)-1-(cyanomethyl)pyrrolidin-3-yl]amino}-3-nitrophenyl)sulfonyl]benzamide] | 0.003 | 15.6 | – | – | – | 5832.2
4 | CC1(C)CCC(CN2CCN(c3ccc(C(=O)NS(=O)(=O)c4cnc(OCC5CCOCC5)c(F)c4)c(Oc4cccc5[nH]ncc45)c3)CC2)=C(c2ccc(Cl)cc2)C1 [Example 487, 4-(4-{[2-(4-chlorophenyl)-4,4-dimethylcyclohex-1-en-1-yl]methyl}piperazin-1-yl)-N-{[5-fluoro-6-(tetrahydro-2H-pyran-4-ylmethoxy)pyridin-3-yl]sulfonyl}-2-(1H-indazol-4-yloxy)benzamide] | – | – | 0.033 | 2287.2 | 75.4 | –
5 | CC1(C)CC(c2ccc(Cl)cc2)=C(CN2CCN(c3ccc(C(=O)NS(=O)(=O)c4ccc(OCC5(F)CCOCC5)c(Cl)c4)c(Oc4cccc5[nH]ncc45)c3)CC2)CO1 [Example 496, N-({3-chloro-4-[(4-fluorotetrahydro-2H-pyran-4-yl)methoxy]phenyl}sulfonyl)-4-(4-{[4-(4-chlorophenyl)-6,6-dimethyl-5,6-dihydro-2H-pyran-3-yl]methyl}piperazin-1-yl)-2-(1H-indazol-4-yloxy)benzamide] | – | – | 0.078 | 558.9 | 43.3 | –
6 | O=C(NS(=O)(=O)c1ccc(N2C(=O)C3CCC3C2=O)cc1)c1ccc(N2CCN(Cc3ccccc3-c3ccc(Cl)cc3)CC2)cc1Oc1ccccc1 (stereo not drawn) [Example 28, 4-{4-[(4′-chloro-1,1′-biphenyl-2-yl)methyl]piperazin-1-yl}-N-{[4-(2,4-dioxo-3-azabicyclo[3.2.0]hept-3-yl)phenyl]sulfonyl}-2-phenoxybenzamide] | 33.7 | > 660 | – | – | – | –
7 | CC1(C)CCC(CN2CCN(c3ccc(C(=O)NS(=O)(=O)c4ccc(NC5CCN(CCCF)CC5)c([N+](=O)[O-])c4)c(Oc4ccc5[nH]ccc5c4)c3)CC2)=C(c2ccc(Cl)cc2)C1 [Example 235, 4-(4-{[2-(4-chlorophenyl)-4,4-dimethylcyclohex-1-en-1-yl]methyl}piperazin-1-yl)-N-[(4-{[1-(3-fluoropropyl)piperidin-4-yl]amino}-3-nitrophenyl)sulfonyl]-2-(1H-indol-5-yloxy)benzamide] | 0.252 | 58.2 | – | – | – | –
8 | Cc1ccc(S(=O)(=O)NC(=O)c2ccc(N3CCN(Cc4ccccc4-c4ccc(Cl)cc4)CC3)cc2Oc2ccccc2)cc1 [Example 61, 4-{4-[(4′-chloro-1,1′-biphenyl-2-yl)methyl]piperazin-1-yl}-N-[(4-methylphenyl)sulfonyl]-2-phenoxybenzamide] | 52.2 | > 660 | – | – | – | –
9 | O=C(NS(=O)(=O)c1ccc(NC2CCN(S(=O)(=O)c3cccc4cccnc34)CC2)c([N+](=O)[O-])c1)c1ccc(N2CCN(Cc3ccccc3-c3ccc(Cl)cc3)CC2)cc1Oc1ccccc1 [Example 158, 4-{4-[(4′-chloro-1,1′-biphenyl-2-yl)methyl]piperazin-1-yl}-N-[(3-nitro-4-{[1-(quinolin-8-ylsulfonyl)piperidin-4-yl]amino}phenyl)sulfonyl]-2-phenoxybenzamide] | 64.8 | > 660 | – | – | – | –
10 | CC1(C)CCC(CN2CCN(c3ccc(C(=O)NS(=O)(=O)c4ccc(OCC5CCC(C)(O)CC5)c([N+](=O)[O-])c4)c(Oc4cccc5[nH]ncc45)c3)CC2)=C(c2ccc(Cl)cc2)C1 (stereo not drawn) [Example 532, 4-(4-{[2-(4-chlorophenyl)-4,4-dimethylcyclohex-1-en-1-yl]methyl}piperazin-1-yl)-N-({4-[(cis-4-hydroxy-4-methylcyclohexyl)methoxy]-3-nitrophenyl}sulfonyl)-2-(1H-indazol-4-yloxy)benzamide] | – | – | < 0.01 | >981.2 | 9.81 | –
11 | CN(C)CC(=O)N1CCO[C@H](COc2ncc(S(=O)(=O)NC(=O)c3ccc(N4CCN(CC5=C(c6ccc(Cl)cc6)CC(C)(C)CC5)CC4)cc3Oc3cccc4[nH]cnc34)cc2Cl)C1 [Example 423, 2-(1H-benzimidazol-4-yloxy)-N-[(5-chloro-6-{[(2S)-4-(N,N-dimethylglycyl)morpholin-2-yl]methoxy}pyridin-3-yl)sulfonyl]-4-(4-{[2-(4-chlorophenyl)-4,4-dimethylcyclohex-1-en-1-yl]methyl}piperazin-1-yl)benzamide] | < 0.01 | 7.57 | – | – | – | 756.6
12 | CN(C)CC(=O)N1CCO[C@@H](CNc2ccc(S(=O)(=O)NC(=O)c3ccc(N4CCN(CC5=C(c6ccc(Cl)cc6)CC(C)(C)CC5)CC4)cc3Oc3cccc4[nH]cnc34)cc2[N+](=O)[O-])C1 [Example 438, 2-(1H-benzimidazol-4-yloxy)-4-(4-{[2-(4-chlorophenyl)-4,4-dimethylcyclohex-1-en-1-yl]methyl}piperazin-1-yl)-N-{[4-({[(2S)-4-(N,N-dimethylglycyl)morpholin-2-yl]methyl}amino)-3-nitrophenyl]sulfonyl}benzamide] | – | – | < 0.01 | – | 0.345 | –
13 | CC1(C)CCC(CN2CCN(c3ccc(C(=O)NS(=O)(=O)c4ccc(OCC5CCOCC5)c(Cl)c4)c(Oc4cccc5[nH]ncc45)c3)CC2)=C(c2ccc(Cl)cc2)C1 [Example 498, 4-(4-{[2-(4-chlorophenyl)-4,4-dimethylcyclohex-1-en-1-yl]methyl}piperazin-1-yl)-N-{[3-chloro-4-(tetrahydro-2H-pyran-4-ylmethoxy)phenyl]sulfonyl}-2-(1H-indazol-4-yloxy)benzamide] | – | – | < 0.01 | >12491.0 | 125 | –
